This is an account of results in patent US10828315B2 (Madrigal Pharmaceuticals, Inc., priority 2013, dated 2020).

The term IC50 denotes the concentration that gives 50% inhibition.

Several values for one entry are separate records, joined by “and”; a condition that tells them apart may be missing. Equal values may be shown once. Read-outs that look alike come from different tables or passages of the source. Bounds are passed on as bounds.

Data set [1] concerns HER2. The data set can be described thus: HER2 degradation assay with BT-474 cell line (Example 12, FACS). Type of data set: cell-based, human.
In data set [2] the test system is human urinary bladder cancer cell line RT-112. The data set can be described thus: Cytotoxicity assay (CellTiter-Glo, 72 h), RT-112. The data set is classed as cell-based. The note with it: read-out: Cytotoxicity (IC50, nM) RT-112.
Method: (§1) Cytotoxicity of SDC-TRAP molecules was determined in three cancer cell lines. […] 80 μL of CellTiter-Glo was added to each well, followed by room temperature incubation in the dark for 15 minutes. Cell was determined by luminescence. IC50 was calculated using XLfit™ software.
Data set [3] relates to human urinary bladder cancer cell line SW780. The data set can be described thus: Cytotoxicity assay (CellTiter-Glo, 72 h), SW780. The data set is classed as cell-based. As to conditions: read-out: Cytotoxicity (IC50, nM) SW-780. A general note: Cellular ATP, detected with luciferase, serves as a proxy for viable cell number.
Method: as §1
The test system of data set [4] is human breast cancer cell line BT-474. In words: Cytotoxicity assay (CellTiter-Glo, 72 h), BT-474. Type of data set: cell-based. As to conditions: read-out: Cytotoxicity (IC50, nM) BT-474.
Method: as §1
For data set [5] the following is noted: mouse, plasma, 1 h, 10 µM.
Data set [6] in a line: Mouse plasma stability protocol, up to 1 h (Examples 16-18).
[7] abbreviates: % Remaining of parent after 1 h incubation in mouse plasma at 37° C. (10 μM).
The mark [8] stands for this setting: Tissue Distribution Data for SDC-TRAP-0098, Time (h) 0.083.
Setting [9] is: Tissue Distribution Data for SDC-TRAP-0098, Time (h) 1.
The mark [10] stands for this setting: Tissue Distribution Data for SDC-TRAP-0098, Time (h) 6.
[11] abbreviates: Tissue Distribution Data for SDC-TRAP-0098, Time (h) 24.

On to `CCNC(=O)c1nnc(-c2cc(C(C)C)c(O)cc2O)n1-c1ccc(CN2CCC(C(=O)N3CCC(C(=O)N[C@H]4C[C@H](O[C@H]5C[C@](O)(C(=O)CO)Cc6c(O)c7c(c(O)c65)C(=O)c5c(OC)cccc5C7=O)O[C@@H](C)[C@H]4O)CC3)CC2)cc1` [SDC-TRAP-0198, 1-(1-(4-(3-(2,4-dihydroxy-5-isopropylphenyl)-5-(ethylcarbamoyl)-4H-1,2,4-triazol-4-yl)benzyl)piperidine-4-carbonyl)-N-((2S,3S,4S,6R)-3-hydroxy-2-methyl-6-(((1S,3S)-3,5, 12-trihydroxy-3-(2-hydroxyacetyl)-10-methoxy-6,11-dioxo-1,2,3,4,6,11-hexahydrotetracen-1-yl)oxy)tetrahydro-2H-pyran-4-yl)piperidine-4-carboxamide], for which the 50% inhibitory concentration (IC50) in data set [1] (BT-474 cells, overnight) was over 10000 nM; in data set [2] (RT-112, 72 hours), 297 nM; in data set [3] (SW780, 72 hours) it was over 10000 nM; in data set [4] (BT-474, 72 hours), 786 nM.
As to `CC(C)c1cc(-c2nnc(O)n2-c2ccc(CN3CCN(C(=O)CCCc4nc5cc(N(CCCl)CCCl)ccc5n4C)CC3)cc2)c(O)cc1O` [SDC-TRAP-0069, 4-(5-(bis (2-chloroethyl)amino)-1-methyl-1H-benzo[d]imidazol-2-yl)-1-(4-(4-(3-(2,4-dihydroxy-5-isopropylphenyl)-5-hydroxy-4H-1,2,4-triazol-4-yl)benzyl)piperazin-1-yl)butan-1-one], the IC50 in data set [1] (BT-474 cells, overnight) is 1230 nM; in data set [2] (RT-112, 72 h), 909 nM; in data set [3] (SW780, 72 h), 1340 nM; in data set [4] (BT-474, 72 h), 914 nM.
Take `CC(C)c1cc(-c2nnc(O)n2-c2ccc(CN3CCN(C(=O)ONC(=O)CCCCCCC(=O)Nc4ccccc4)CC3)cc2)c(O)cc1O` [SDC-TRAP-0117, N1-((4-(4-(3-(2,4-dihydroxy-5-isopropylphenyl)-5-hydroxy-4H-1,2,4-triazol-4-yl)benzyl)piperazine-1-carbonyl)oxy)-N8-phenyloctanediamide]: the “% Remaining (1 h)” value in data set [5] stood at 3.97%. The half-maximal inhibitory concentration (IC50) in data set [2] (RT-112, 72 hours) was 152 nM; in data set [3] (SW780, 72 hours) it was 284 nM; in data set [4] (BT-474, 72 hours), 452 nM.
For `COc1ccc(-c2cnoc2-c2cc(OC)c(OC)c(OC)c2)cc1OC(=O)N1CCN(Cc2ccc(-n3c(O)nnc3-c3cc(C(C)C)c(O)cc3O)cc2)CC1` [SDC-TRAP-0098, 2-Methoxy-5-(5-(3,4,5-trimethoxyphenyl)isoxazol-4-yl)phenyl-4-(4-(3-(2,4-dihydroxy-5-isopropylphenyl)-5-hydroxy-4H-1,2,4-triazol-4-yl)benzyl) piperazine-1-carboxylate], the “% Remaining (1 h)” value is 96.0% in data set [6] (setting [7]) and 96.0% in data set [6] (mouse plasma, 1 h). Besides, the IC50 in data set [1] came out at 232 nM; in data set [2] (RT-112, 72 h) it was 22 nM; in data set [3] (SW780, 72 h) it was 257 nM; in data set [4] (BT-474, 72 h), 41 nM. Besides, the “Tumor Conc.” value was 5.02 nmol/g of tissue under setting [8]; 4.62 nmol/g of tissue under setting [9]; 3.18 nmol/g of tissue under setting [10]; 0.920 nmol/g of tissue under setting [11]; 0.182 nmol/g of tissue (Tissue Distribution Data for SDC-TRAP-0098, Time (h) 48). Moreover, the “Tumor/Plasma Ratio” value by setting is: under setting [8], 0.01; under setting [9], 0.62; under setting [10], 8.22; under setting [11], 300.
Turning to `CCc1c2c(nc3ccc(OC(=O)N4CCN(C(=O)Cn5ccc6cc(-n7c(O)nnc7-c7cc(C(C)C)c(O)cc7O)ccc65)CC4C)cc13)-c1cc3c(c(=O)n1C2)COC(=O)C3(O)CC` (stereo not shown) [SDC-TRAP-0201, 4,11-Diethyl-4-hydroxy-3,14-dioxo-3,4,12,14-tetrahydro-1H-pyrano[3′,4′:6,7]indolizino[1,2-b]quinolin-9-yl 4-(2-(5-(3-(2,4-dihydroxy-5-isopropylphenyl)-5-hydroxy-4H-1,2,4-triazol-4-yl)-1H-indol-1-yl)acetyl)-2-methylpiperazine-1-carboxylate], the IC50 was 4670 nM in data set [1]; 72 nM in data set [2] (RT-112, 72 h); 1100 nM in data set [3] (SW780, 72 h); 1410 nM in data set [4] (BT-474, 72 h).
With `CCNC(=O)c1nnc(-c2cc(C(C)C)c(O)cc2O)n1-c1ccc(C(=O)N2CCN(c3cc(C)c(OC(=O)Nc4cccc5c4CN(C4CCC(=O)NC4=O)C5=O)c(C)c3)CC2)cc1` (stereo not shown) [SDC-TRAP-0178, 4-(4-(4-(3-(2,4-dihydroxy-5-isopropylphenyl)-5-(ethylcarbamoyl)-4H-1,2,4-triazol-4-yl)benzoyl)piperazin-1-yl)-2,6-dimethylphenyl (2-(2,6-dioxopiperidin-3-yl)-1-oxoisoindolin-4-yl)carbamate], the “% Remaining (1 h)” value was 82.0% in data set [6] (setting [7]) and 82.0% in data set [6] (mouse plasma, 37° C., 10 μM). In addition, the half-maximal inhibitory concentration (IC50) in data set [1] is 170 nM and 91 nM; in data set [1] (BT-474 cells, overnight), 91 nM; in data set [2] (RT-112, 72 h) it was 29 nM; in data set [3] (SW780, 72 h) it was over 10000 nM; in data set [4] (BT-474, 72 h) it was 37 nM. For the same molecule, the “Plasma Conc.” value reads like this: (after SDC-TRAP-0178, 1 h) 217000 nM; (after SDC-TRAP-0178, 6 h) 4510 nM; (after SDC-TRAP-0178, 24 h) 28 nM; (after SDC-TRAP-0178, 48 h) 241 nM. Further, the “Tumor Conc.” value runs as follows: (after SDC-TRAP-0178, 1 h) 12.8 nmol/g of tissue; (after SDC-TRAP-0178, 6 h) 7.17 nmol/g of tissue; (after SDC-TRAP-0178, 24 h) 2.81 nmol/g of tissue; (after SDC-TRAP-0178, 48 h) 1.01 nmol/g of tissue. Moreover, the “Tumor/Plasma Ratio” value is recorded as 0.0589 (after SDC-TRAP-0178, 1 h); 1.59 (after SDC-TRAP-0178, 6 h); 100 (after SDC-TRAP-0178, 24 h); 0.0179 (after SDC-TRAP-0178, […]).
Regarding `CC(C)c1cc(C(=O)N2Cc3ccc(NC(=O)CCCc4nc5cc(N(CCCl)CCCl)ccc5n4C)cc3C2)c(O)cc1O` [SDC-TRAP-0211, 4-(5-(bis(2-chloroethyl)amino)-1-methyl-1H-benzo[d]imidazol-2-yl)-N-(2-(2,4-dihydroxy-5-isopropylbenzoyl)isoindolin-5-yl)butanamide], the IC50 came to 289 nM in data set [1] (BT-474 cells, overnight); 110 nM in data set [2] (RT-112, 72 h); 2340 nM in data set [3] (SW780, 72 h); 249 nM in data set [4] (BT-474, 72 h).
Take `CCc1c2c(nc3ccc(OC(=O)N4CCC[C@H]4C(=O)N4CCN(c5ccc(-n6c(O)nnc6-c6cc(C(C)C)c(O)cc6O)cc5)CC4)cc13)-c1cc3c(c(=O)n1C2)COC(=O)[C@]3(O)CC` [SDC-TRAP-0204, (S)—(S)-4,11-diethyl-4-hydroxy-3,14-dioxo-3,4,12,14-tetrahydro-1H-pyrano[3′,4′:6,7]indolizino[1,2-b]quinolin-9-yl 2-(4-(4-(3-(2,4-dihydroxy-5-isopropylphenyl)-5-hydroxy-4H-1,2,4-triazol-4-yl)phenyl)piperazine-1-carbonyl)pyrrolidine-1-carboxylate]: the IC50 was over 10000 nM in data set [1]; 1310 nM in data set [2] (RT-112, 72 h); over 10000 nM in data set [3] (SW780, 72 h); 8060 nM in data set [4] (BT-474, 72 h).
Take `CC(C)c1cc(-c2nnc(O)n2-c2ccc3c(c2)CN(C(=O)c2ccc(CCc4c[nH]c5nc(N)[nH]c(=O)c45)cc2)C3)c(O)cc1O` [SDC-TRAP-0093, 2-amino-5-(4-(5-(3-(2,4-dihydroxy-5-isopropylphenyl)-5-hydroxy-4H-1,2,4-triazol-4-yl)isoindoline-2-carbonyl)phenethyl)-3H-pyrrolo[2,3-d]pyrimidin-4(7H)-one]: the IC50 was 1290 nM in data set [2] (RT-112, 72 hours); over 10000 nM in data set [3] (SW780, 72 hours); 1540 nM in data set [4] (BT-474, 72 hours).
